One experiment concerns the target PI3Kalpha (Homo sapiens (Human), UniProt P42336). The experiment is described as follows: HTRF PI3K biochemical assay, alpha isoform (selectivity versus delta). Particulars: ratio PI3K-alpha IC50 value/PI3K-delta IC50 value. As for the experimental part:
(§1) HTRF PI3K Biochemical Assay to Measure Intrinsic Potency of Compound Inhibitors
(§2) This loss of signal is nonlinear with respect to both increasing product and time. This non-linear detection will impact accuracy of IC50 calculations; therefore, there is a need for a correction factor to obtain more accurate IC50 values. This correction is derived from a PIP3 standard curve run in a separate assay plate. All data were calculated using the ratio of acceptor (APC) to donor (Europium) fluorescence in each well of the assay plate. […] An IC50 was then calculated fitting the % inhibition data to the equation: % inhibition=min+(Max−min)/1+([inhibitor]/IC50)^n) where min is the % inhibition with inhibitor, max is the signal in DMSO control, and n is the Hill slope.
(§3) The biological data was collected using the methodology described above.
The determination of relative selectivity for a given compound is defined as the relative ratio of the (PI3K-alphaIC50 value/PI3K-delta IC50 value).

Another experiment concerns the target PI3Kdelta (Homo sapiens (Human), UniProt O00329). Briefly: HTRF PI3K biochemical assay, delta isoform. As to conditions: 0.3 nM enzyme, 100 uM ATP, 50 uM PIP2; form screened (neutral or TFA salt). On the procedure:
as §1, §2, §3

Chain of PI3Kdelta (O00329 whole entry, canonical isoform): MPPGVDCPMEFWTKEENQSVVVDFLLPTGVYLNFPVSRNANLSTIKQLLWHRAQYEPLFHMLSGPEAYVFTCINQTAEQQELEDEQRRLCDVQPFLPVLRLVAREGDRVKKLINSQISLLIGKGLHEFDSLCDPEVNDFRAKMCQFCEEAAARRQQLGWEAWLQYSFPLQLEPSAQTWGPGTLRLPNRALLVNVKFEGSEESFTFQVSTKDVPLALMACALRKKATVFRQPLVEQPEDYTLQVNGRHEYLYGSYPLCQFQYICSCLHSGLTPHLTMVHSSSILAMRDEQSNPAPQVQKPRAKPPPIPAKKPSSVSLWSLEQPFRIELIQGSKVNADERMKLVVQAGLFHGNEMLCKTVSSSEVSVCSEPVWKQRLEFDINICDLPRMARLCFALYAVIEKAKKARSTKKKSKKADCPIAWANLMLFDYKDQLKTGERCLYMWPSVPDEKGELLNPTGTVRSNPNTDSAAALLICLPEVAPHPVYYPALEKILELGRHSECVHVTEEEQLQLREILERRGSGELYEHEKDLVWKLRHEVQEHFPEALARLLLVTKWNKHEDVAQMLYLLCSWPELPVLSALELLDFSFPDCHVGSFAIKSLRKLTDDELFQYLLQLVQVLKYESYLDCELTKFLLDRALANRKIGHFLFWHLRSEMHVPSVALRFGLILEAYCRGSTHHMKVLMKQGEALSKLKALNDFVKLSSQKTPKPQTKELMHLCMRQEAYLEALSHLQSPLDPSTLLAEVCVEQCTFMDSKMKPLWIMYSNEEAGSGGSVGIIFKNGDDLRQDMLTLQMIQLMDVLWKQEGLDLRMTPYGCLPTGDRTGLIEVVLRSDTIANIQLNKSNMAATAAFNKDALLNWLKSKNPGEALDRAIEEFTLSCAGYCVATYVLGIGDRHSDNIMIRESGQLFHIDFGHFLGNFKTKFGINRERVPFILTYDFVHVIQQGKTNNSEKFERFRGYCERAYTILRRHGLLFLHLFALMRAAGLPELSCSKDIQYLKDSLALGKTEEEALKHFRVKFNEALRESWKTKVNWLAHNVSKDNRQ
Chain of PI3Kdelta (P27986 whole entry partner, canonical isoform): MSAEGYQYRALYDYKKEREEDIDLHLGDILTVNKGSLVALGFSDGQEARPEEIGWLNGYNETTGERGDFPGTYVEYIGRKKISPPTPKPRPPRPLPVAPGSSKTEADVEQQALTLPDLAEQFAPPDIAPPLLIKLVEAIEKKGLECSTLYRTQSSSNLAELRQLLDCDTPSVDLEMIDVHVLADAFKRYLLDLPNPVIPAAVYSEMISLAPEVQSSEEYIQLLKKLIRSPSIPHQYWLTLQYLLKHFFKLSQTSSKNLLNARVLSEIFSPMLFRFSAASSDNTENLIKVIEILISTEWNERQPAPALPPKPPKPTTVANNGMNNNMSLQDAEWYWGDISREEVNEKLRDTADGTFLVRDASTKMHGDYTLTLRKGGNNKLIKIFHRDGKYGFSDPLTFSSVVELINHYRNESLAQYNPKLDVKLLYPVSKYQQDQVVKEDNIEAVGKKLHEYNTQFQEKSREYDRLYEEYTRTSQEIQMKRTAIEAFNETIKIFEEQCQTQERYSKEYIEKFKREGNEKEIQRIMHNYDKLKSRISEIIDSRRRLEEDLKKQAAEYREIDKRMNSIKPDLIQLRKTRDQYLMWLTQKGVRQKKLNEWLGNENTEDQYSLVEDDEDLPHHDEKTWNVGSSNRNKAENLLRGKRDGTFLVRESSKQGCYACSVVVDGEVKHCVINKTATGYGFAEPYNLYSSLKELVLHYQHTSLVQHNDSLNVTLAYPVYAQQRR
Chain of PI3Kalpha (P42336 whole entry, canonical isoform): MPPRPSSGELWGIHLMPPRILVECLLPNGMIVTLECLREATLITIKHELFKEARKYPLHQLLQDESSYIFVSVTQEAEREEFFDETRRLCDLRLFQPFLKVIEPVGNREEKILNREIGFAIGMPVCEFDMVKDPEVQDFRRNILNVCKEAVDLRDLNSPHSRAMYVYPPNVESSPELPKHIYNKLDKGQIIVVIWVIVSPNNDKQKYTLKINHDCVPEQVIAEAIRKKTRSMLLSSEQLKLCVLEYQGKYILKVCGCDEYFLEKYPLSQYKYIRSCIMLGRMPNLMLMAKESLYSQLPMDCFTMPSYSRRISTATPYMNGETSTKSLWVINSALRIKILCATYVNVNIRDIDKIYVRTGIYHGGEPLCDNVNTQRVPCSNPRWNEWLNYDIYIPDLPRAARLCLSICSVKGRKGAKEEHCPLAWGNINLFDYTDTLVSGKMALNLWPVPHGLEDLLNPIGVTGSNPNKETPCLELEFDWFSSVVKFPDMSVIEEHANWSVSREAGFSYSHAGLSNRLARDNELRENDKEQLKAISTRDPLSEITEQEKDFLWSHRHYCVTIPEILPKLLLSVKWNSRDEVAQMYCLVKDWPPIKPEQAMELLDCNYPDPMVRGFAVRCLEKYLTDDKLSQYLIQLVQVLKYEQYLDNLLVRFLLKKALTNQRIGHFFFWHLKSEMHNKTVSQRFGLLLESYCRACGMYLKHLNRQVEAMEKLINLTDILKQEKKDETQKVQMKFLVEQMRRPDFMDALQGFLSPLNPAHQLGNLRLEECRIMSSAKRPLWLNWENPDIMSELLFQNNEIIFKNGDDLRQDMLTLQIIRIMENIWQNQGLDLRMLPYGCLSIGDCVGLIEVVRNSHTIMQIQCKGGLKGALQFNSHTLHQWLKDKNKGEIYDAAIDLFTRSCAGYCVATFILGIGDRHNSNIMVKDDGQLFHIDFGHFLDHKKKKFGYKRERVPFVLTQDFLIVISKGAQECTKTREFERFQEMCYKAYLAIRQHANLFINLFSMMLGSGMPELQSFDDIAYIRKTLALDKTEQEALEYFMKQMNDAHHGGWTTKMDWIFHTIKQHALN
Chain of PI3Kalpha (P27986 whole entry partner, canonical isoform): as the sequence (P27986 whole entry partner, canonical isoform) above

Regarding `CCn1c(-c2cnc(C)nc2)nc2c(-c3ccc4c(c3)C(C)(N3C[C@@H](C)O[C@@H](C)C3)C(=O)N4)ncnc21` (single isomer, unassigned) [Compound 2-3, (R or S)-3-[(cis)-2,6-dimethylmorpholin-4-yl]-5-[9-ethyl-8-(2-methylpyrimidin-5-yl)-9H-purin-6-yl]-3-methyl-1,3-dihydro-2H-indol-2-one], on PI3Kalpha, the “Relative Selectivity versus PI3Kalpha” value was 4. In addition, on PI3Kdelta, the 50% inhibitory concentration (IC50) amounted to 145 nM.
The like results for `Cc1ncc(-c2nc3c(-c4ccc5c(c4)C(C)(NCC(C)(F)F)C(=O)N5)ncnc3n2C)cn1` (single isomer, unassigned) [Compound 2-70, (R or S)-3-((2,2-difluoropropyl)amino)-3-methyl-5-(9-methyl-8-(2-methylpyrimidin-5-yl)-9H-purin-6-yl)indolin-2-one] were, in that order, greater than 10 and 4 nM.
For `CCn1c(-c2cnc(C)nc2)nc2c(-c3ccc4c(c3)C(C)(NCC3CC3)C(=O)N4)ncnc21` (single isomer, unassigned) [Compound 2-33, (R or S)-3-[(cyclopropylmethyl)amino]-5-[9-ethyl-8-(2-methylpyrimidin-5-yl)-9H-purin-6-yl]-3-methyl-1,3-dihydro-2H-indol-2-one], the “Relative Selectivity versus PI3Kalpha” value at PI3Kalpha is listed as greater than 4. In addition, the IC50 at PI3Kdelta was determined as 2750 nM.
Consider `CCn1c(-c2cnc(C)nc2)nc2c(-c3ccc4c(c3)C(C)(NCC3CC3)C(=O)N4)ncnc21` (single isomer, unassigned) [Compound 2-34, (R or S)-3-[(cyclopropylmethyl)amino]-5-[9-ethyl-8-(2-methylpyrimidin-5-yl)-9H-purin-6-yl]-3-methyl-1,3-dihydro-2H-indol-2-one], for which, on PI3Kalpha, the “Relative Selectivity versus PI3Kalpha” value is listed as greater than 10. For the same compound, on PI3Kdelta, the IC50 worked out at 29 nM.
The like results for `CCn1c(-c2cnc(C)nc2)nc2c(-c3ccc4c(c3)C(C)(N[C@@H](C)C3CC3)C(=O)N4)ncnc21` (single isomer, unassigned) [Compound 2-13, 3-{[(1S)-1-cyclopropylethyl]amino}-5-[9-ethyl-8-(2-methylpyrimidin-5-yl)-9H-purin-6-yl]-3(R or S)-methyl-1,3-dihydro-2H-indol-2-one] were, in that order, greater than 10 and 32 nM.
In the case of `Cc1ncc(-c2nc3c(-c4cnc5c(c4)C(C)(CC(C)C)C(=O)N5)ncnc3n2C)cn1` (single isomer, unassigned) [Compound 1-26, (R or S)-3-isobutyl-3-methyl-5-(9-methyl-8-(2-methylpyrimidin-5-yl)-9H-purin-6-yl)-1,3-dihydro-2H-pyrrolo[2,3-b]pyridin-2-one], the “Relative Selectivity versus PI3Kalpha” value at PI3Kalpha is greater than 10. Moreover, on PI3Kdelta, the IC50 was 50 nM.
The like results for `CCn1c(-c2cnc(C)nc2)nc2c(-c3ccc4c(c3)C(C)(CC(C)C)NS4(=O)=O)ncnc21` (single isomer, unassigned) [Compound 4-5, (R or S)-9-ethyl-6-[3-methyl-3-(2-methylpropyl)-1,1-dioxido-2,3-dihydro-1,2-benzisothiazol-5-yl]-8-(2-methylpyrimidin-5-yl)-9H-purine] were, in that order, greater than 10 and 6 nM.
The like results for `CCN1CCCC12C(=O)Nc1ccc(-c3ncnc4c3nc(-c3cnc(C)nc3)n4CC)cc12` (single isomer, unassigned) [Compound 3-27, (R or S)-1′-ethyl-5-(9-ethyl-8-(2-methylpyrimidin-5-yl)-9H-purin-6-yl)spiro[indoline-3,2′-pyrrolidin]-2-one] were, in that order, greater than 10 and 9 nM.
The like results for `CCn1c(-c2cnc(C)nc2)nc2c(-c3ccc4c(c3)C(C)(CC3(C)COC3)C(=O)N4)ncnc21` (single isomer, unassigned) [Compound 1-6, (R or S)-5-[9-ethyl-8-(2-methylpyrimidin-5-yl)-9H-purin-6-yl]-3-methyl-3-[(3-methyloxetan-3-yl)methyl]-1,3-dihydro-2H-indol-2-one] were, in that order, greater than 10 and 15 nM.
On to `CCn1c(-c2cnc(C)nc2)nc2c(-c3ccc4c(c3)C(C)(NCC3CCC3)C(=O)N4)ncnc21` (racemic) [Compound 2-20, (R and S)-3-[(cyclobutylmethyl)amino]-5-[9-ethyl-8-(2-methylpyrimidin-5-yl)-9H-purin-6-yl]-3-methyl-1,3-dihydro-2H-indol-2-one], for which, at PI3Kalpha, the “Relative Selectivity versus PI3Kalpha” value is reported as greater than 10. Also, at PI3Kdelta, the IC50 stood at 23 nM.
As for `CCn1c(-c2cnc(C)nc2)nc2c(-c3ccc4c(c3)C(C)(NCC(C)C)C(=O)N4)ncnc21` (single isomer, unassigned) [Compound 2-65, (R or S)-5-(9-ethyl-8-(2-methylpyrimidin-5-yl)-9H-purin-6-yl)-3-(isobutylamino)-3-methylindolin-2-one], the “Relative Selectivity versus PI3Kalpha” value on PI3Kalpha was greater than 10. Further, at PI3Kdelta, the IC50 was 79 nM.
On to `CCn1c(-c2cnc(C)nc2)nc2c(-c3ccc4c(c3)C(C)(CC3CC3)C(=O)N4C)ncnc21` (single isomer, unassigned) [Compound 1-9, 3-(Cyclopropylmethyl)-5-(9-ethyl-8-(2-methylpyrimidin-5-yl)-9H-purin-6-yl)-1,3-dimethylindolin-2-one], for which the “Relative Selectivity versus PI3Kalpha” value at PI3Kalpha is listed as greater than 10. In addition, the IC50 on PI3Kdelta came out at 17 nM.
Regarding `CCn1c(-c2cnc(C)nc2)nc2c(-c3ccc4c(c3)C(C)(NCC3(F)COC3)C(=O)N4)ncnc21` (single isomer, unassigned) [Compound 2-71, (R or S)-5-(9-ethyl-8-(2-methylpyrimidin-5-yl)-9H-purin-6-yl)-3-(((3-fluorooxetan-3-yl)methyl)amino)-3-methylindolin-2-one], the “Relative Selectivity versus PI3Kalpha” value at PI3Kalpha is recorded as greater than 10. In addition, on PI3Kdelta, the IC50 was found to be 219 nM.
Turning to `CCn1c(-c2cnc(C)nc2)nc2c(-c3ccc4c(c3)C(C)(N3CC(C)(F)C3)C(=O)N4)ncnc21` (single isomer, unassigned) [Compound 2-64, (R or S)-5-(9-ethyl-8-(2-methylpyrimidin-5-yl)-9H-purin-6-yl)-3-(3-fluoro-3-methylazetidin-1-yl)-3-methylindolin-2-one], on PI3Kalpha, the “Relative Selectivity versus PI3Kalpha” value is greater than 10. For the same compound, the IC50 on PI3Kdelta worked out at 6 nM.
The like results for `CCn1c(-c2cnc(C)nc2)nc2c(-c3ccc4c(c3)C(C)(N3C[C@@H](C)O[C@@H](C)C3)C(=O)N4)ncnc21` (single isomer, unassigned) [Compound 2-4, (R or S)-3-[(cis)-2,6-dimethylmorpholin-4-yl]-5-[9-ethyl-8-(2-methylpyrimidin-5-yl)-9H-purin-6-yl]-3-methyl-1,3-dihydro-2H-indol-2-one] were, in that order, greater than 10 and 5 nM.
The like results for `CCn1c(-c2cnc(C)nc2)nc2c(-c3ccc4c(c3)C(C)(CC)C(=O)N4)ncnc21` (single isomer, unassigned) [Compound 1-39, (R or S)-3-ethyl-5-(9-ethyl-8-(2-methylpyrimidin-5-yl)-9H-purin-6-yl)-3-methylindolin-2-one] were, in that order, greater than 10 and 85 nM.
The like results for `CCn1c(-c2cnc(C)nc2)nc2c(-c3ccc4c(c3)C(C)(CC(C)C)NC4=O)ncnc21` (single isomer, unassigned) [Compound 4-7, (R or S)-5-[9-ethyl-8-(2-methylpyrimidin-5-yl)-9H-purin-6-yl]-3-methyl-3-(2-methylpropyl)-2,3-dihydro-1H-isoindol-1-one] were, in that order, greater than 10 and 7 nM.
In the case of `CCn1c(-c2cnc(C)nc2)nc2c(-c3ccc4c(c3)C(C)(N[C@H]3C[C@H](OC)C3)C(=O)N4)ncnc21` (single isomer, unassigned) [Compound 2-82, 5-(9-ethyl-8-(2-methylpyrimidin-5-yl)-9H-purin-6-yl)-3-(((1R,3R)-3-methoxycyclobutyl)amino)-3(R or S)-methylindolin-2-one], the “Relative Selectivity versus PI3Kalpha” value at PI3Kalpha amounted to 8. The IC50 at PI3Kdelta was found to be 1570 nM.
For the compound `Cc1ncc(-c2nc3c(-c4ccc5c(c4)C4(CCCN4C(C)C)C(=O)N5)ncnc3n2C)cn1` (single isomer, unassigned) [Compound 3-13, (R or S)-1′-isopropyl-5-(9-methyl-8-(2-methylpyrimidin-5-yl)-9H-purin-6-yl)spiro[indoline-3,2′-pyrrolidin]-2-one], the “Relative Selectivity versus PI3Kalpha” value at PI3Kalpha was greater than 10. Moreover, at PI3Kdelta, the 50% inhibitory concentration (IC50) worked out at 45 nM.
The like results for `CCn1c(-c2cnc(C)nc2)nc2c(-c3ccc4c(c3)C3(CCCO3)C(=O)N4)ncnc21` (single isomer, unassigned) [Compound 3-30, (R or S)-5′-(9-ethyl-8-(2-methylpyrimidin-5-yl)-9H-purin-6-yl)-4,5-dihydro-3H-spiro[furan-2,3′-indolin]-2′-one] were, in that order, 5 and 156 nM.
Consider `CCn1c(-c2cnc(C)nc2)nc2c(-c3cnc4c(c3)C(C)(CC3CC3)C(=O)N4)ncnc21` (single isomer, unassigned) [Compound 1-14, (R or S)-3-(cyclopropylmethyl)-5-(9-ethyl-S-(2-methylpyrimidin-5-yl)-9H-purin-6-yl)-3-methyl-1,3-dihydro-2H-pyrrolo[2,3-b]pyridin-2-one], for which, at PI3Kalpha, the “Relative Selectivity versus PI3Kalpha” value was greater than 10. For the same compound, the IC50 on PI3Kdelta came to 16 nM.
